Test results published in patent US20130059787A1, “METHODS OF USING HUMAN PROTEIN KINASE C DELTA VIII AS A BIOMARKER” (UNITED STATES DEPARTMENT OF VETERAN AFFAIRS, priority 2010, published 2013).

Tests used:
[1] = tested on: 5′ splice site II of PKCδ exon 10; assay: pSPL3_PKCδ splicing minigene in NT2 cells, RT-PCR; format: cell-based, human; conditions: RA about 10 μM, 24 h
Description: (a) schematic represents PKCδ pre-mRNA exon 10 and flanking introns cloned into pSPL3 splicing vector between the SD and SA exons. The resulting minigene is referred to as pSPL3_PKCδ minigene. Arrows indicate position of primers used in RT-PCR analysis. (b) pSPL3_PKCδ minigene and pSPL3 empty vector were transfected overnight, and then the cells were treated with or without about 10 μM RA for about 24 h. Total RNA was extracted and RT-PCR performed using primers as described above. Expected products are SD-SA: constitutive splicing; SSI: usage of 5′ splice site I; SSII: usage of 5′ splice site II. (c) About 2 μg of SC35 or SF2/ASF was co-transfected along with the pSPL3_PKCδ splicing minigene. […] Graphs represent percent exon inclusion calculated as SS II/(SS II+SSI)×100 in the samples and are representative of four experiments performed separately. […]
Splicing minigenes are advantageous to identify cis-elements on the pre-mRNA involved in regulated alternative splicing. […] Since the human PKCδ splice variants used alternative 5′ splice sites as determined previously, exon 10 of PKCδ pre-mRNA along with its flanking 3′ and 5′ intronic sequences was cloned (as described under “Experimental Procedures”) in the multiple cloning site (MCS) between the splice donor (SD) and splice acceptor (SA) exons of pSPL3, a vector developed to study splicing events (schematic shown in FIG. 10a). […]

[2] = tested on: ischemic stroke; conditions: RA injections immediately and following ischemia; cited from earlier work

## CC1=C(/C=C/C(C)=C/C=C/C(C)=C/C(=O)O)C(C)(C)CCC1 [RA, all-trans-retinoic acid]
[1]
  utilization of 5′ splice site II of PKCδ exon 10 in pSPL3_PKCδ minigene: increased utilization
[2]
  infarct volume: reduced
